Results as given in ChEMBL document CHEMBL3864170, “Pyrazole Inhibitors of GluN2B NMDA Receptor Subunit” (ACS Med Chem Lett, 2016).

What was measured:
[1] = Antidepressive activity in po dosed NMRI mouse assessed as reduction in duration of immobility administered 30 mins prior to the test measured on last 4 mins of the 10 mins test by force swim test; type: functional, organism-based
hERG (KCNH2) = hERG (KCNH2) (Homo sapiens, UniProt Q12809); experiment: Displacement of [3H]-dofetilide from human ERG expressed in HEK293 cell membranes after 90 mins by scintillation counting; conditions: membranes of HEK293 cells that express human ERG, probe [3H]-dofetilide
Chain of hERG (KCNH2) (Q12809 whole entry): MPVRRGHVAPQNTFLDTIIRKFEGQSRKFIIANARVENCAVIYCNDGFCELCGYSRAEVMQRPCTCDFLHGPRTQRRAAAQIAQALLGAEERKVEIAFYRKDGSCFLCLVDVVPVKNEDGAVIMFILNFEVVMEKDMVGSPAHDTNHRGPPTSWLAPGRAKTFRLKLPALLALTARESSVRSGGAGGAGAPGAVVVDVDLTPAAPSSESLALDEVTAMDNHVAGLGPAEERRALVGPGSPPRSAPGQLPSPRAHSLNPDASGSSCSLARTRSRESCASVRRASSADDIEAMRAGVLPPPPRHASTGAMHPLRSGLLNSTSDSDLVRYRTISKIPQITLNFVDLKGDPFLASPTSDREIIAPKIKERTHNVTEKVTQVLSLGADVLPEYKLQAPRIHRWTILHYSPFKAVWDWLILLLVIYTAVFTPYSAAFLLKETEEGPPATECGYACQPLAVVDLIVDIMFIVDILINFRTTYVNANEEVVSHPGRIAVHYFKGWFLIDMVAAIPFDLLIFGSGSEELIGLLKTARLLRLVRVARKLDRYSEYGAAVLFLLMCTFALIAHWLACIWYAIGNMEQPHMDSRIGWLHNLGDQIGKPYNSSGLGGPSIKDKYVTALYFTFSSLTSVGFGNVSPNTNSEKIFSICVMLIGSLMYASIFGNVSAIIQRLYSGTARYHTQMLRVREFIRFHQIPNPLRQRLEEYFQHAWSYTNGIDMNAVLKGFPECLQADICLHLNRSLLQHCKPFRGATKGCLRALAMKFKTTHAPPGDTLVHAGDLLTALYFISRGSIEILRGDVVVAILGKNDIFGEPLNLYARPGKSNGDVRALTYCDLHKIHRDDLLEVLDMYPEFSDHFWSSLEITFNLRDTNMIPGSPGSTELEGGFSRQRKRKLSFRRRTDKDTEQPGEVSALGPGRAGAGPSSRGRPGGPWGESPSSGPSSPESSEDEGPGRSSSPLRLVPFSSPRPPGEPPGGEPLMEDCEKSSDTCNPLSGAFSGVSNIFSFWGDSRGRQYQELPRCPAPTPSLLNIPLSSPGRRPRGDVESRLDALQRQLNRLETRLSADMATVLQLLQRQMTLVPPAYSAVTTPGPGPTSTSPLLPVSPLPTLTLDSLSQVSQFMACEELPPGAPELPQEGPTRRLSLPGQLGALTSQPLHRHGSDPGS

[2] = biological target: Glutamate receptor ionotropic, NMDA 2B (Rattus norvegicus, UniProt Q00960); experiment: Antagonist activity at Wistar rat brain NR2B assessed as inhibition of glutamate/glycine-induced Ca2+ flux measured after 90 secs
Chain of Glutamate receptor ionotropic, NMDA 2B (Q00960 whole entry): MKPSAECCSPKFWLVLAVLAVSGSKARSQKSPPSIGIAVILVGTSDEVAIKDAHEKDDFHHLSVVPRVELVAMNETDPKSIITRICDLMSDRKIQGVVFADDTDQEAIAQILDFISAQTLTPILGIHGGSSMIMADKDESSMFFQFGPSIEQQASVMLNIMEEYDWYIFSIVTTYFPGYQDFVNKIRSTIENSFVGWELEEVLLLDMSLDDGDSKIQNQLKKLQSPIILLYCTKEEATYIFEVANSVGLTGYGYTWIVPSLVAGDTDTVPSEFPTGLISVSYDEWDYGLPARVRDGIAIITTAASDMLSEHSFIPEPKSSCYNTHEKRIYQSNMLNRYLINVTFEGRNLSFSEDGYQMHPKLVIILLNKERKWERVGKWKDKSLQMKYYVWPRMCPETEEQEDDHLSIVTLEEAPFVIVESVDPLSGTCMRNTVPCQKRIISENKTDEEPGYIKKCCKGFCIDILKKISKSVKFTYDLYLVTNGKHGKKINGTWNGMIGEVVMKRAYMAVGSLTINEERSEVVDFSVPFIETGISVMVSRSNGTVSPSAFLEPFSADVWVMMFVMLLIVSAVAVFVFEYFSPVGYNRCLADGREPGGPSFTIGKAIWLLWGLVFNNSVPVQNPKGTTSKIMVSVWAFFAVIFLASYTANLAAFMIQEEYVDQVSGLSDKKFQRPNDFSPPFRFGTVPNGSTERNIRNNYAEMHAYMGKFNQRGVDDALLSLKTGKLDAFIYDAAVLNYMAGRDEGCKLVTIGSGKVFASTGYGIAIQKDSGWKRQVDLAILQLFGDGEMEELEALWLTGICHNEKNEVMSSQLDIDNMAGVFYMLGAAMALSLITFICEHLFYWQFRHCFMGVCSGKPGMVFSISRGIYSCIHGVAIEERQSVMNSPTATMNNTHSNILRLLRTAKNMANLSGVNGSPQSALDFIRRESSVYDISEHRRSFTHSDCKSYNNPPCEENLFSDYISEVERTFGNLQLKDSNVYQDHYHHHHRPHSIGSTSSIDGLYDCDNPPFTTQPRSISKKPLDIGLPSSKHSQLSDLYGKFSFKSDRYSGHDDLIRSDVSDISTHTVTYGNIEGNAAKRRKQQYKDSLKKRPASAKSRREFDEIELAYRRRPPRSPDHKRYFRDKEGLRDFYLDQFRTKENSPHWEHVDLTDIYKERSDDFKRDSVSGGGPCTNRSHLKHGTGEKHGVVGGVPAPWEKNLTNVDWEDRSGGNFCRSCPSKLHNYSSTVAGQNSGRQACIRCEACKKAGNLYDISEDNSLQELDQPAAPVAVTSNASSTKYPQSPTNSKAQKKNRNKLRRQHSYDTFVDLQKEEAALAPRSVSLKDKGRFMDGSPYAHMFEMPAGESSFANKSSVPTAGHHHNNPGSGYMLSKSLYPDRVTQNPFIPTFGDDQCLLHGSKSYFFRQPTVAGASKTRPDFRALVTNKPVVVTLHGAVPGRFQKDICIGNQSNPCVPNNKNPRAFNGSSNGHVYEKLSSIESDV

| Compound | MED [1] | IC50 at 90 min (hERG (KCNH2)) | IC50 [2] |
| --- | --- | --- | --- |
| Fc1ccc(-c2cnn(Cc3cc[nH]n3)c2)cc1OC(F)F | 10 mg/kg |  |  |
| FC(F)Oc1cc(-c2cnn(Cc3cn[nH]c3)c2)ccc1Cl |  | 52.6 µM | 0.00823 µM |
| Cn1ccc(Cn2cc(-c3ccc(Cl)c(C(F)(F)F)c3)cn2)n1 |  | 3.47 µM | 1.01 µM |
| Cn1ccc(Cn2cc(-c3ccc(Cl)c(OC(F)F)c3)cn2)n1 | 30 mg/kg |  |  |
